The structures appear in SMILES notation. Like-named read-outs stand apart in the source and are kept apart here.

Results on 31 molecules are retold here after patent US7294637B2 (Sepracor, Inc., priority 2000, dated 2007).

Experiment [1] deals with norepinephrine transporter (Homo sapiens, UniProt P23975). The experiment can be described thus: NE uptake: displacement of norephinephrine ligands in vitro (methods of Galli et al.). The format is binding.
The next experiment concerns the target serotonin transporter (Homo sapiens, UniProt P31645). The experiment can be described thus: 5-HT uptake: displacement of serotonin ligands in vitro (methods of Gu et al.). The format is binding. Conditions: displacement of serotonin ligands in vitro; read-out: 5-HT Uptake, Uptake Profile (IC50).
A further experiment deals with dopamine transporter (Homo sapiens, UniProt Q01959). The experiment in a line: DA uptake: displacement of dopamine ligands in vitro (methods of Gu et al.).
Sequence of dopamine transporter (Q01959 whole entry): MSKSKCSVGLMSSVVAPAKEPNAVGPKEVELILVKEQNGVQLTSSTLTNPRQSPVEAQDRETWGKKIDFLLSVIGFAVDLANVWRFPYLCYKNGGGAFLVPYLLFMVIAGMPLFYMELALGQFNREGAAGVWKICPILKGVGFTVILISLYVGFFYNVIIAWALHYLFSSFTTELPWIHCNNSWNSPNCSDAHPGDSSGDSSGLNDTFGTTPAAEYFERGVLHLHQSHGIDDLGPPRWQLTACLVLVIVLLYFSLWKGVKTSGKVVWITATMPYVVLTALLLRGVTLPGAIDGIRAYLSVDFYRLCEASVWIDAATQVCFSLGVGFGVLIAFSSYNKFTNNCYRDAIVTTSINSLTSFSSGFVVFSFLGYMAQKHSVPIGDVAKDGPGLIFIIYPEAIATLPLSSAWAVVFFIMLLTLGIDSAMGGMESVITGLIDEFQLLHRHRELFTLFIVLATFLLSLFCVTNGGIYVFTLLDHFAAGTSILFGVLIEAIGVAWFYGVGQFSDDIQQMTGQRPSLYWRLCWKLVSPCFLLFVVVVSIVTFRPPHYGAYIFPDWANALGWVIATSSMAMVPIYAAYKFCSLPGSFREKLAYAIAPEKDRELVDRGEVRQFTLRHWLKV
Where [2] appears, read: NE Uptake, Uptake Profile (IC50, nM).
[3] abbreviates: DA Uptake, Uptake Profile (IC50, nM), displacement of dopamine ligands in vitro.
Setting [4] is: read-out: NE Uptake, Uptake Profile (IC50).

Sequence of norepinephrine transporter (P23975 whole entry): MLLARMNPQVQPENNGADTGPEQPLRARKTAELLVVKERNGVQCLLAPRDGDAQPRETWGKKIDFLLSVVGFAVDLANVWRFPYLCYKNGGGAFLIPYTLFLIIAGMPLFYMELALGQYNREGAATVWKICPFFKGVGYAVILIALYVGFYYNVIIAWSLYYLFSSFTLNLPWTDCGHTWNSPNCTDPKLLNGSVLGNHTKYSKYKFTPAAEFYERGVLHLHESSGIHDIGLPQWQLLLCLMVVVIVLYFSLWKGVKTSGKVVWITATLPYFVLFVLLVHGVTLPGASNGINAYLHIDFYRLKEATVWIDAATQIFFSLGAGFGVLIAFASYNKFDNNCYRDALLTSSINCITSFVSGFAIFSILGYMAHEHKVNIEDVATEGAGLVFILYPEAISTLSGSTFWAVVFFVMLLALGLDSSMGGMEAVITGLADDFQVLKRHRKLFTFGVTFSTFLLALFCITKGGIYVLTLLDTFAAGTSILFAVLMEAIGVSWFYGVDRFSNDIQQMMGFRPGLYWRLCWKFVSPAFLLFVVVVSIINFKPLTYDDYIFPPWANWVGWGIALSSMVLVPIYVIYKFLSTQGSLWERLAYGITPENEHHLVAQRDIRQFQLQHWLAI
Sequence of serotonin transporter (P31645 whole entry): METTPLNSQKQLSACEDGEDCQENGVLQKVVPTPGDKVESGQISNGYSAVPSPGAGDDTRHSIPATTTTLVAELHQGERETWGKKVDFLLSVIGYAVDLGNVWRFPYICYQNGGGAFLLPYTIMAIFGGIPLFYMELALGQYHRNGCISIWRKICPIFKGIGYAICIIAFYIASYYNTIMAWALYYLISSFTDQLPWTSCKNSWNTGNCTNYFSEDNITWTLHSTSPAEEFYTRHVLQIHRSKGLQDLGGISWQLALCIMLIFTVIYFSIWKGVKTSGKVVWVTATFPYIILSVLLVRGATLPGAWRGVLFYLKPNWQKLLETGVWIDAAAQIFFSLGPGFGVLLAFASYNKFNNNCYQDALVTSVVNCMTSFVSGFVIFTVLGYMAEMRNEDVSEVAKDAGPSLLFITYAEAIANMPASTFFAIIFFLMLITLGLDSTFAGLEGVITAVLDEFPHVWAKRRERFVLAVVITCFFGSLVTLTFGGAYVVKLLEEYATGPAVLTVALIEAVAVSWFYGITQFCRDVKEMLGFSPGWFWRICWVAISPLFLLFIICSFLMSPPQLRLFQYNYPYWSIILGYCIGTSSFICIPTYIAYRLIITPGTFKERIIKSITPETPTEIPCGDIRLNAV

Turning to `c1ccc(OCC2CCCN(CC3(c4ccccc4)CCC3)C2)cc1` (stereo not drawn) [compound 34, 3-Phenoxymethyl-1-(1-phenyl-cyclobutylmethyl)-piperidine], the half-maximal inhibitory concentration (IC50) in experiment [1] (setting [2]) is less than 1000 nM; on serotonin transporter, less than 1 µM; at dopamine transporter (setting [3]), less than 1000 nM.

For `OC(CN1CCCC(CCc2ccc(OC(F)(F)F)cc2)C1)c1ccc(Cl)cc1` (stereo not drawn) [compound 201], the concentration for half-maximal inhibition (IC50) in experiment [1] (setting [2]) is less than 1000 nM; on serotonin transporter it was less than 1 µM; at dopamine transporter (setting [3]), less than 10 nM.

Consider `OC(CN1CCCC(COc2ccc(C(F)(F)F)cc2)C1)C1(c2ccc(C(F)(F)F)cc2)CCC1` (stereo not drawn) [compound 166], for which the IC50 was less than 100 nM in experiment [1] (setting [2]), more than 1 µM on serotonin transporter and less than 10 nM on dopamine transporter (setting [3]).

In the case of `OC(CN1CCCC(CCc2ccc(C(F)(F)F)cc2)C1)C1(c2ccc(Cl)cc2)CCC1` (single isomer, unassigned) [compound 194, 1-[1-(4-Chloro-phenyl)-cyclobutyl]-2-{3-[2-(4-trifluoromethyl-phenyl)-ethyl]-piperidin-1-yl}-ethanol], the IC50 in experiment [1] (setting [2]) was less than 100 nM; at serotonin transporter, less than 1 µM; on dopamine transporter (setting [3]), less than 10 nM.

With `FC(F)(F)c1ccc(OCCC2CCCN(CC3(c4ccc(Cl)cc4)CCC3)C2)cc1` (stereo not drawn) [compound 39, 1-[1-(4-Chloro-phenyl)-cyclobutylmethyl]-3-[2-(4-trifluoromethyl-phenoxy)-ethyl]-piperidine], the half-inhibitory concentration (IC50) in experiment [1] (setting [2]) is less than 100 nM; on serotonin transporter, more than 1 µM; at dopamine transporter (setting [3]), less than 10 nM.

As for `OC(CN1CCCC(COc2ccc(C(F)(F)F)cc2)C1)C1(c2ccc(Cl)cc2)CCC1` (stereo not drawn) [compound 24, 1-[1-(4-Chlorophenyl)cyclobutyl]-2-[3-(4-trifluoromethylphenoxymethyl)piperidin-1-yl]ethanol], the 50% inhibitory concentration (IC50) in experiment [1] (setting [2]) was less than 10 nM; on serotonin transporter, less than 1 µM; on dopamine transporter (setting [3]) it was less than 10 nM.

Take `O=C(CN1CCCC(COc2ccccc2)C1)C1(c2ccc(Cl)cc2)CCC1` (stereo not drawn) [compound 20, 1-[1-(4-Chlorophenyl)cyclobutyl]-2-(3-phenoxymethylpiperidin-1-yl)ethanone]: the concentration for half-maximal inhibition (IC50) in experiment [1] (setting [2]) is less than 1000 nM; at serotonin transporter, less than 1 µM; at dopamine transporter (setting [3]) it was less than 1000 nM.

Turning to `FC(F)(F)c1ccc(OCC2CN(CC3(c4ccc(Cl)cc4)CCC3)C2)cc1` [compound 105, methanesulfonic acid 1-[1-(4-chloro-phenyl)-cyclobutylmethyl]-3-(4-trifluoromethyl-phenoxymethyl)-azetidine], the IC50 in experiment [1] (setting [2]) is less than 100 nM; on serotonin transporter, less than 1 µM; at dopamine transporter (setting [3]), less than 10 nM.

On to `CC(O)(CN1CCC[C@@H](CCc2ccccc2)C1)c1ccc(Cl)cc1` (stereo partly drawn) [compound 197, 2-(4-Chloro-phenyl)-1-(3 (R)-phenethyl-piperidin-1-yl)-propan-2-ol], for which the IC50 was less than 1000 nM in experiment [1] (setting [2]), less than 0.01 µM on serotonin transporter and less than 1000 nM on dopamine transporter (setting [3]).

Take `O=C(N1CCCC(CO)C1)C1(c2ccc(Cl)cc2)CCC1` (stereo not drawn) [compound 1, [1-(4-chloro-phenyl)-cyclobutyl]-(3-hydroxymethylpiperidin-1yl)-methadone]: the IC50 is more than 1000 nM in experiment [1] (setting [2]), more than 1 µM at serotonin transporter and more than 1000 nM at dopamine transporter (setting [3]).

For the molecule `CN(C)CC(Oc1ccc(C(F)(F)F)cc1)C1CCCN(CC2(c3ccc(Cl)cc3)CCC2)C1` (racemic) [compound 175], the figures for the concentration for half-maximal inhibition (IC50) (in experiment [1] (setting [2]); at serotonin transporter; on dopamine transporter (setting [3])) were more than 1000 nM, less than 1 µM and less than 1000 nM, respectively.

For `FC(F)(F)c1ccc(COC2CCCN(CC3(c4ccc(Cl)cc4)CCC3)C2)cc1` (stereo not drawn) [compound 107, 1-[1-(4-Chloro-phenyl)-cyclobutylmethyl]-3-(4-trifluoromethyl-benzyloxy)-piperidine], the values for the half-maximal inhibitory concentration (IC50) (in experiment [1] (setting [2]); at serotonin transporter; at dopamine transporter (setting [3])) were less than 1000 nM, more than 1 µM and less than 1000 nM, respectively.

`CO[C@H](CN1CCC[C@@H](COc2ccc(C(F)(F)F)cc2)C1)C1(c2ccc(Cl)cc2)CCC1` [compound 161]: the IC50 in experiment [1] (setting [2]) was less than 1000 nM; at serotonin transporter, less than 1 µM; on dopamine transporter (setting [3]), less than 10 nM.

Turning to `Clc1ccc(C2(CN3CCCC(CCc4ccccc4)C3)CCC2)cc1` (stereo not drawn) [compound 147, 1-[1-(4-Chloro-phenyl)-cyclobutylmethyl]-3-phenethyl-piperidine], the IC50 was less than 100 nM in experiment [1] (setting [2]), more than 1 µM at serotonin transporter and less than 1000 nM at dopamine transporter (setting [3]).

Take `OC(CN1CCCC(COc2ccc(C(F)(F)F)cc2)C1)C1(c2ccc3c(c2)OCO3)CCC1` (stereo not drawn) [compound 165]: the results for the half-maximal inhibitory concentration (IC50) (in experiment [1] (setting [2]); on serotonin transporter; on dopamine transporter (setting [3])) were less than 100 nM, less than 0.1 µM and less than 10 nM, respectively.

Regarding `FC(F)(F)c1ccc(OCC2CNCCCO2)cc1` (stereo not drawn) [compound 15, 2-(4-trifluoromethyl-phenoxymethyl)-[1,4]oxazepane], the half-inhibitory concentration (IC50) was more than 1000 nM in experiment [1] (setting [4]), more than 1 µM at serotonin transporter and more than 1000 nM on dopamine transporter (setting [3]).

Regarding `CC(CC1CCCN(CC2(c3ccc(Cl)cc3)CCC2)C1)c1ccccc1` (stereo in doubt) [compound 186, (S)-1-[1-(4-Chloro-phenyl)-cyclobutylmethyl]-3-(2-phenyl-propyl)-piperidine], the IC50 was less than 1000 nM in experiment [1] (setting [2]), less than 1 µM at serotonin transporter and less than 1000 nM on dopamine transporter (setting [3]).

As for `COc1ccc(C2(CN3CCC[C@H](COc4ccc(OC(F)(F)F)cc4)C3)CCC2)cc1` [compound 171, (S)-1-[1-(4-Methoxy-phenyl)-cyclobutylmethyl]-3-(4-trifluoromethoxy-phenoxymethyl)-piperidine], the concentration for half-maximal inhibition (IC50) is less than 1000 nM in experiment [1] (setting [2]), less than 1 µM at serotonin transporter and less than 10 nM on dopamine transporter (setting [3]).

`NCC1CCCN(CC2(c3ccc(Cl)cc3)CCC2)C1` (stereo not drawn) [compound 230, C-{1-[1-(4-Chloro-phenyl)-cyclobutylmethyl]-piperidin-3-yl}-methylamine]: the IC50 in experiment [1] (setting [4]) is more than 1000 nM; on serotonin transporter it was more than 1 µM; on dopamine transporter (setting [3]), less than 100 nM.

For the molecule `OC(CN1CCCC(COc2ccc(C(F)(F)F)cc2)C1)c1ccc(Cl)cc1` (stereo not drawn) [compound 136, 1-(4-Chloro-phenyl)-2-[3-(4-trifluoromethyl-phenoxymethyl)-piperidin-1-yl]-ethanol], the IC50 in experiment [1] (setting [2]) is less than 1000 nM; on serotonin transporter, less than 0.1 µM; at dopamine transporter (setting [3]) it was less than 1000 nM.

As for `FC(F)(F)c1ccc(CCC2CCCN(CC3(c4ccccc4)CCC3)C2)cc1` (stereo not drawn) [compound 93, 1-(1-phenyl-cyclobutylmethyl]-3-[2-(4-trifluoromethyl-phenyl)-ethyl]-piperidine], the values for the IC50 (in experiment [1] (setting [4]); on serotonin transporter; at dopamine transporter) were more than 1000 nM, less than 1 µM and more than 1000 nM, respectively.

As to `CC(CN1CCCC(COc2ccc(C(F)(F)F)cc2)C1)C(O)c1ccc(Cl)cc1` (stereo not drawn) [compound 218, 1-(4-Chloro-phenyl)-2-methyl-3-[3-(4-trifluoromethyl-phenoxymethyl)-piperidin-1-yl]-propan-1-ol], the half-inhibitory concentration (IC50) is more than 1000 nM in experiment [1] (setting [2]), less than 1 µM on serotonin transporter and less than 10 nM at dopamine transporter (setting [3]).

Consider `OC(CN1CCCC(CCc2ccc(C(F)(F)F)cc2)C1)c1ccc(Cl)cc1` (single isomer, unassigned) [compound 153, 1-(4-Chloro-phenyl)-2-{3-[2-(4-trifluoromethyl-phenyl)-ethyl]-piperidin-1-yl}-ethanol], for which the concentration for half-maximal inhibition (IC50) in experiment [1] (setting [2]) was less than 100 nM; on serotonin transporter, less than 0.01 µM; at dopamine transporter (setting [3]), less than 100 nM.

For `FC(F)(F)c1ccc(OCC2CCCN(CC3COc4ccccc4O3)C2)cc1` (single isomer, unassigned) [compound 176, 1-(2,3-Dihydro-benzo[1,4]dioxin-2-ylmethyl)-3-(4-trifluoromethyl-phenoxymethyl)-piperidine], the half-maximal inhibitory concentration (IC50) in experiment [1] (setting [2]) is more than 1000 nM; at serotonin transporter it was less than 1 µM; at dopamine transporter (setting [3]), less than 1000 nM.

Regarding `OC(CN1CCCC(CCc2ccccc2)C1)c1ccc(Cl)cc1` (single isomer, unassigned) [compound 141, 1-(4-Chloro-phenyl)-2-(3-phenethyl-piperidin-1-yl)-ethanol], the IC50 was less than 1000 nM in experiment [1] (setting [2]), less than 1 µM on serotonin transporter and less than 1000 nM on dopamine transporter (setting [3]).

Take `CN(C)CC(Oc1ccc(C(F)(F)F)cc1)C1CCCN(C(=O)C2(c3ccc(Cl)cc3)CCC2)C1` (racemic) [compound 173]: the results for the 50% inhibitory concentration (IC50) (in experiment [1] (setting [2]); on serotonin transporter; on dopamine transporter (setting [3])) were more than 1000 nM, less than 0.1 µM and more than 1000 nM, respectively.

As for `FC(F)(F)c1ccc(OCC2CCCN(CC3(c4ccc(Cl)cc4)CCOCC3)C2)cc1` (stereo not drawn) [compound 159, 1-[4-(4-Chloro-phenyl)-tetrahydro-piran-4-ylmethyl]-3-(4-trifluoromethyl-phenoxymethyl)piperidine], the 50% inhibitory concentration (IC50) is less than 1000 nM in experiment [1] (setting [2]), less than 1 µM on serotonin transporter and less than 100 nM at dopamine transporter (setting [3]).

For the molecule `CC(C)(CN1CCC[C@@H](COc2ccc(C(F)(F)F)cc2)C1)c1ccc(Cl)cc1` [compound 122], the half-maximal inhibitory concentration (IC50) in experiment [1] (setting [4]) was more than 1000 nM; on serotonin transporter it was more than 1 µM; at dopamine transporter (read-out: DA Uptake, Uptake Profile (IC50), displacement of dopamine ligands in vitro) it was less than 1000 nM.

Regarding `OC(CN1CCCC(CCc2ccc(C(F)(F)F)cc2)C1)C1(c2ccc(Cl)cc2)CCC1` (single isomer, unassigned) [compound 193, 1-[1-(4-Chloro-phenyl)-cyclobutyl]-2-{3-[2-(4-trifluoromethyl-phenyl)-ethyl]-piperidin-1-yl}-ethanol], the concentration for half-maximal inhibition (IC50) in experiment [1] (setting [2]) was less than 10 nM; on serotonin transporter, less than 1 µM; on dopamine transporter (setting [3]), less than 10 nM.

Consider `OC(CN1CCCC(COc2ccc(C(F)(F)F)cc2)C1)C1(c2ccc(OC(F)(F)F)cc2)CCC1` (stereo not drawn) [compound 206, 1-[1-(4-Trifluoromethoxy-phenyl)-cyclobutyl]-2-[3-(4-trifluoromethyl-phenoxymethyl)-piperidin-1-yl]-ethanol], for which the values for the half-inhibitory concentration (IC50) (in experiment [1] (setting [2]); on serotonin transporter; at dopamine transporter (setting [3])) were less than 1000 nM, less than 1 µM and less than 100 nM, respectively.

`FC(F)(F)c1cc(COC2CCCN(CC3(c4ccc(Cl)cc4)CCC3)C2)cc(C(F)(F)F)c1` (stereo not drawn) [compound 189, 3-(3,5-Bis-trifluoromethyl-benzyloxy)-1-[1-(4-chloro-phenyl)-cyclobutylmethyl]-piperidine]: the figures for the IC50 (in experiment [1] (setting [4]); at serotonin transporter; at dopamine transporter (setting [3])) were more than 1000 nM, more than 1 µM and more than 1000 nM, respectively.
